Active and inactive are the calls of the source. No cut-off for these calls is given here. Some results are limits rather than exact numbers.

The target of assay [1] is T1, Toll-like receptor 8 (Homo sapiens) (UniProt Q9NR97).
T1 sequence (whole entry): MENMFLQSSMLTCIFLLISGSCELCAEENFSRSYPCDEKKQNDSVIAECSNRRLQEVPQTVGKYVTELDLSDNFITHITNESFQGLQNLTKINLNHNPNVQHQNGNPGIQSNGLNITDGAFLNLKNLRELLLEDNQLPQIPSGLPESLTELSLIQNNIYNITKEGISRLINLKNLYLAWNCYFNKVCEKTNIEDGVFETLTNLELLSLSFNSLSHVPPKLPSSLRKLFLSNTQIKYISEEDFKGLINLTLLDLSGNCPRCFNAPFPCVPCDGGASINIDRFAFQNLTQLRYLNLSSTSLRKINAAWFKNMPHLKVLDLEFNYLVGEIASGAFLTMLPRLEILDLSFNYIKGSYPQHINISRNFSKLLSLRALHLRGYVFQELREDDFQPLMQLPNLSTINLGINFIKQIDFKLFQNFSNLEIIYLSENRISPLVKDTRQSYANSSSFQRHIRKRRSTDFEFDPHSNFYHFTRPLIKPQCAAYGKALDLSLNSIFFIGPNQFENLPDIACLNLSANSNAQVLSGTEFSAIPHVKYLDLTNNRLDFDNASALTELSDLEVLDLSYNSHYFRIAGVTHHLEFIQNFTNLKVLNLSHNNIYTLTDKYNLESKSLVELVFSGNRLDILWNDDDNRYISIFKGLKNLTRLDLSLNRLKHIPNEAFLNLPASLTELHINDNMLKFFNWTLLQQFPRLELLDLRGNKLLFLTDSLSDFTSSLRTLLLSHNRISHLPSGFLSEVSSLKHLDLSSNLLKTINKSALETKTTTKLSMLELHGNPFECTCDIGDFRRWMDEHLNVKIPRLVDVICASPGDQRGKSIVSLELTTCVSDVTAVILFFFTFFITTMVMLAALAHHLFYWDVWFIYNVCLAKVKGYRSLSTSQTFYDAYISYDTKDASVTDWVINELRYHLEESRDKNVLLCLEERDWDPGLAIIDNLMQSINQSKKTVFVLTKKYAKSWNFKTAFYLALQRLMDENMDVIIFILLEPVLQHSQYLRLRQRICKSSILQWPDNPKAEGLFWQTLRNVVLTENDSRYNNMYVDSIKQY
Briefly: Antagonist activity at human TLR8 expressed in HEK-Blue cells assessed as reduction in CL075-induced NF-kappaB activation at 25 uM incubated for 1 hr followed by CL075-stimulation and measured after 24 hrs by quanti-blue SEAP assay relative to control. In kind it is cell-based.

The target of assay [2] is T1, Toll-like receptor 8 (Homo sapiens). Briefly: Antagonist activity at human TLR8 expressed in HEK-Blue cells assessed as reduction in CL075-induced NF-kappaB activation at 10 uM incubated for 1 hr followed by CL075-stimulation and measured after 24 hrs by quanti-blue SEAP assay. In kind it is cell-based.
Assay [3] concerns the target T2, Toll-like receptor 7 (Homo sapiens) (UniProt Q9NYK1).
T2 sequence (whole entry): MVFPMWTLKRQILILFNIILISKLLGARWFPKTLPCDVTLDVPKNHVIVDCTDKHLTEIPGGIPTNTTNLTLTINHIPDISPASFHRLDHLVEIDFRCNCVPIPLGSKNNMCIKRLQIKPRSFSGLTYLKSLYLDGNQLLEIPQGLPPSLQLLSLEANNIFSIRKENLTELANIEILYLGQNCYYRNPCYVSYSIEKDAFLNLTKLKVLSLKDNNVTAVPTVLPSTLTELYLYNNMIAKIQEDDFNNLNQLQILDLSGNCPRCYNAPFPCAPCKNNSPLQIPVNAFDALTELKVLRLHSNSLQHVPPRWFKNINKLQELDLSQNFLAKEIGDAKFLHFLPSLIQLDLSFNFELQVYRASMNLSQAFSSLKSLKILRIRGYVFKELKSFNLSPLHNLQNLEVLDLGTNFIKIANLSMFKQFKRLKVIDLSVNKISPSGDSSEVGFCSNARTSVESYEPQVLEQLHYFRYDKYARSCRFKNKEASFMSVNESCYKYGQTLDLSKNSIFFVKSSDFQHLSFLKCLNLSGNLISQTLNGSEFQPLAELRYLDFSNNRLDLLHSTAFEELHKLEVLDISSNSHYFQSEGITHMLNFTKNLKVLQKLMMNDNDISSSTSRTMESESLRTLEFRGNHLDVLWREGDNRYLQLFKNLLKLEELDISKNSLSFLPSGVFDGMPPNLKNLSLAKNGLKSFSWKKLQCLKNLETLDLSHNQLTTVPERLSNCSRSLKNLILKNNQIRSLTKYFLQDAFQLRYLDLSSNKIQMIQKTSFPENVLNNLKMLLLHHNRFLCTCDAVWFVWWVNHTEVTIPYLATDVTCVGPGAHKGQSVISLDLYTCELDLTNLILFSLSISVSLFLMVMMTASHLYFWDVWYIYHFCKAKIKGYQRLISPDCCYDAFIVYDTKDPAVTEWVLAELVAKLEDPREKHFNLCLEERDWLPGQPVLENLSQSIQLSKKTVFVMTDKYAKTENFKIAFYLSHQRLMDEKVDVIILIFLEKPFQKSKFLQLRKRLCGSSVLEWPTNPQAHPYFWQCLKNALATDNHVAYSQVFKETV
The assay is described as follows: Antagonist activity at human TLR7 expressed in HEK-Blue cells assessed as inhibition of CL075-induced NF-kappaB activation incubated for 1 hr followed by CL075-stimulation and measured after 24 hrs by quanti-blue SEAP assay. The class given is cell-based.

A further assay deals with THP-1. The assay is described as follows: Antiinflammatory activity in human THP1 cells assessed as reduction in CL075-induced IL-8 secretion at 10 to 25 uM preincubated for 1 hr followed by CL075-stimulation and measured after 24 hrs by ELISA relative to control. The class given is functional. (In general: ELISA stands for enzyme-linked immunosorbent assay.)
The target in assay [4] is Toll-like receptor 2 (Homo sapiens) (UniProt O60603). Briefly: Antagonist activity at TLR2 in human THP1 cells assessed as inhibition of Pam2CSK4/Pam3CSK4-induced IL-8 secretion preincubated for 1 hr followed by Pam2CSK4/Pam3CSK4 stimulation and measured after 24 hrs by ELISA. In kind it is cell-based.
Chain of Toll-like receptor 2 (Homo sapiens) (O60603 whole entry): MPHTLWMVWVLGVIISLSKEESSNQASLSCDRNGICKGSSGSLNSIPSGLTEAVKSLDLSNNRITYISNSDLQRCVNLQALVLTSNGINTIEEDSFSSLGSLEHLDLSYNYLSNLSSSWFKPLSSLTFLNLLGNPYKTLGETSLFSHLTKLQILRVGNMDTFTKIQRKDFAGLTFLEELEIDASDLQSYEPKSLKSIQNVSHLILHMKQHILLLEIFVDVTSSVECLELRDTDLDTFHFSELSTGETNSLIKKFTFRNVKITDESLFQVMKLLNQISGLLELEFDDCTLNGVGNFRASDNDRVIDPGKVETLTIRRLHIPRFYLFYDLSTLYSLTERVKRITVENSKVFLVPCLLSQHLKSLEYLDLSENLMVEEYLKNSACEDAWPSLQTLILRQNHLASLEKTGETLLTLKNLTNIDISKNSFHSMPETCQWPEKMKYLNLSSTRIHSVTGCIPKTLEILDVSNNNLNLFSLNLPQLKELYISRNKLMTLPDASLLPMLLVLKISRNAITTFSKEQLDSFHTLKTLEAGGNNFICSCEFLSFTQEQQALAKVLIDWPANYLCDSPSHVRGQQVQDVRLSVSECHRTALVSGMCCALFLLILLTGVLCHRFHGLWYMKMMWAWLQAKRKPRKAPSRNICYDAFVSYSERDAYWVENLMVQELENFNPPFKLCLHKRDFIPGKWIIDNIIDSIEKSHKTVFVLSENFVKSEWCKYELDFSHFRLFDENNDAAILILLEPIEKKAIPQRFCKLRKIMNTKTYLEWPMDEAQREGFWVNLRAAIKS

Take `FC(F)(F)c1cc(-c2ccco2)nc(NCc2cccs2)n1`: the inhibition in assay [1] is below 50%. For the same molecule, the inhibition entry in assay [2] is “Active”. Besides, the inhibition result in assay [3] and in assay [4] was “inactive” in each case. The “inhibition (INH)” value in the assay on THP-1 is recorded as above 70%.

Turning to `CCCCNc1nc(-c2cccs2)cc(C(F)(F)F)n1`, the inhibition in assay [1] is below 50%. Also, in assay [2], the inhibition entry was “Active”. In addition, the inhibition entry in assay [3] and in assay [4] was “inactive” in each case. In addition, in the assay on THP-1, the “inhibition (INH)” value came to 50%.

For `FC(F)(F)c1cc(-c2ccccc2)nc(NCc2cccs2)n1`, in assay [1], the inhibition is below 50%. Moreover, in assay [2], the inhibition result is “Active”. The inhibition entry in assay [3] and in assay [4] was “inactive” in each case. In addition, the “inhibition (INH)” value in the assay with THP-1 is given as above 70%.

For orientation: inhibition means how much of the control response was suppressed.

These data come from ChEMBL document CHEMBL4304775, “Identification and characterization of a novel chemotype for human TLR8 inhibitors” (Eur J Med Chem, 2019).
